Calls of active or inactive are those of the source.
Experiments:
[1] = target: Glyceraldehyde-3-phosphate dehydrogenase (Homo sapiens, UniProt P04406)
[2] = target: T1, Bcl-2-related protein A1 (Mus musculus, UniProt Q07440); test: Bfl-1 binding inhibitors, SAR follow-up, biochemical, fluorescence polarization (AID 1070)
T1 sequence (Q07440 whole entry): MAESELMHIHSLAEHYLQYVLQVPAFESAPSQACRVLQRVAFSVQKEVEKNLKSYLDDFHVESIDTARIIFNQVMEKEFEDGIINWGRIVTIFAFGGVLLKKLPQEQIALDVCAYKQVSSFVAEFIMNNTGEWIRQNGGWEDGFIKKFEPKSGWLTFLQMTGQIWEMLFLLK

[3] = target: T1, Bcl-2-related protein A1; test: small-molecule antagonists of Bfl-1/BH3 interaction – biochemical, TR-FRET, mouse Bfl-1, confirmation (AID 621);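 further: TR-FRET binding of GST-Bfl-1 to FITC-labelled Bid peptide via terbium antibody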
[4] = HIV-1 Vif–A3G interaction blockers – biochemical, TR-FRET, GST-Vif 1-94, biotin-A3G peptide, dose response retest, primary screen (AID 1117319); type: functional;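 further: TR-FRET signal of purified GST-Vif binding a biotinylated A3G peptide; inhibitors lower the FRET signal by blocking Vif and A3G binding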
[5] = cells
[6] = NIH-3T3 fibroblast cytotoxicity, dose response, cytotoxicity control, cell-based, fluorescence, Alamar Blue, secondary assay (AID 2327); type: functional;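 further: NIH-3T3 mouse fibroblasts cultured with fluconazole at 8 µg/mL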
[7] = system: INS1; test: INS-1E survival protection against cytokine death – cell-based, luminescence, retest, dose response (AID 449756); type: functional; settings: Rattus norvegicus;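 further: cell death triggered by IL-1 beta plus TNF-alpha plus IFN-gamma mixture; protective hits raise ATP signal compared with cytokine alone wells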
[8] = Trypanosoma cruzi growth suppression in host cells – NIH3T3 host cells, beta-gal luminescence, confirmation (AID 2044); type: functional, cell-based;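 further: intracellular parasites grown in NIH/3T3 mouse fibroblasts as host cells; luminescent beta-galactosidase reporter signal from transgenic T. cruzi replicating inside host cells; inhibitors lower the luminescence signal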
[9] = NIH3T3 cell viability loss – ATP luminescence, mouse fibroblasts, counter-screen, dose response (AID 2010); type: functional, cell-based;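 further: cells exposed to compound for about 90 hours before reading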
[10] = target: T2, Microphthalmia-associated transcription factor (Homo sapiens, UniProt O75030); test: reducers of TRPM1 reporter luminescence, concentration series – cell-based, SK-MEL-5, cherry-picked, set 3, MITF inhibitor project, dose response (AID 493073); type: functional;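 further: SK-MEL-5 melanoma cells with luciferase driven by the MITF target TRPM1 promoter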
T2 sequence (O75030 whole entry): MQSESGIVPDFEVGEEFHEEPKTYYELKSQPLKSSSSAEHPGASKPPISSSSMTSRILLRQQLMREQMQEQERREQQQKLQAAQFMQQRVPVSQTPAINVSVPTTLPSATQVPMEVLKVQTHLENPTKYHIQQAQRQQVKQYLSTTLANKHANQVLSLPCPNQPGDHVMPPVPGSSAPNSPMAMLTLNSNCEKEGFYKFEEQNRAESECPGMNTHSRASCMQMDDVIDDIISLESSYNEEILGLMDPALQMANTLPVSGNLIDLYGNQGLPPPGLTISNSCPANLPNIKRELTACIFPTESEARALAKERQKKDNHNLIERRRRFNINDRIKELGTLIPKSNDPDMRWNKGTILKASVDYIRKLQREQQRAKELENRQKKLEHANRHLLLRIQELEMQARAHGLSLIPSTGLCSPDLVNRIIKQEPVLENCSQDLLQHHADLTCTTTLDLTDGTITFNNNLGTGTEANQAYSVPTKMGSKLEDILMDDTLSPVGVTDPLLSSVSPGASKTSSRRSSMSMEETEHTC

[11] = microbe, parasite or virus in culture; type: functional; settings: Mycobacterium tuberculosis
[12] = target: fMet-Leu-Phe receptor (Homo sapiens, UniProt P21462); test: formyl peptide receptor binders – dose response (AID 519); type: functional
Sequence of fMet-Leu-Phe receptor (P21462 whole entry, the tested form may be a part): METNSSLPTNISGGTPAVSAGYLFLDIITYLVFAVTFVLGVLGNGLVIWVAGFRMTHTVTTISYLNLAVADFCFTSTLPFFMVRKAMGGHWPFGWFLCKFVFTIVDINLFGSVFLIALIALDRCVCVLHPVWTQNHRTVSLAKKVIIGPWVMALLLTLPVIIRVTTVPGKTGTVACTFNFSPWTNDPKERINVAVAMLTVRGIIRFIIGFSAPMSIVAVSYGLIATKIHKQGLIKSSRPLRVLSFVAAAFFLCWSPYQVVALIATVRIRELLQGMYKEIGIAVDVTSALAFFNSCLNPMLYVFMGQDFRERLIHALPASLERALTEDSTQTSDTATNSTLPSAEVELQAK

[13] = target: Disintegrin and metalloproteinase domain-containing protein 17 (Homo sapiens, UniProt P78536); test: inhibition of ADAM17 substrate cleavage – biochemical, quenched FRET substrate, counter-screen for ADAM10 exosite inhibitor project, dose response (AID 743253)
Sequence of Disintegrin and metalloproteinase domain-containing protein 17 (P78536 whole entry, the tested form may be a part): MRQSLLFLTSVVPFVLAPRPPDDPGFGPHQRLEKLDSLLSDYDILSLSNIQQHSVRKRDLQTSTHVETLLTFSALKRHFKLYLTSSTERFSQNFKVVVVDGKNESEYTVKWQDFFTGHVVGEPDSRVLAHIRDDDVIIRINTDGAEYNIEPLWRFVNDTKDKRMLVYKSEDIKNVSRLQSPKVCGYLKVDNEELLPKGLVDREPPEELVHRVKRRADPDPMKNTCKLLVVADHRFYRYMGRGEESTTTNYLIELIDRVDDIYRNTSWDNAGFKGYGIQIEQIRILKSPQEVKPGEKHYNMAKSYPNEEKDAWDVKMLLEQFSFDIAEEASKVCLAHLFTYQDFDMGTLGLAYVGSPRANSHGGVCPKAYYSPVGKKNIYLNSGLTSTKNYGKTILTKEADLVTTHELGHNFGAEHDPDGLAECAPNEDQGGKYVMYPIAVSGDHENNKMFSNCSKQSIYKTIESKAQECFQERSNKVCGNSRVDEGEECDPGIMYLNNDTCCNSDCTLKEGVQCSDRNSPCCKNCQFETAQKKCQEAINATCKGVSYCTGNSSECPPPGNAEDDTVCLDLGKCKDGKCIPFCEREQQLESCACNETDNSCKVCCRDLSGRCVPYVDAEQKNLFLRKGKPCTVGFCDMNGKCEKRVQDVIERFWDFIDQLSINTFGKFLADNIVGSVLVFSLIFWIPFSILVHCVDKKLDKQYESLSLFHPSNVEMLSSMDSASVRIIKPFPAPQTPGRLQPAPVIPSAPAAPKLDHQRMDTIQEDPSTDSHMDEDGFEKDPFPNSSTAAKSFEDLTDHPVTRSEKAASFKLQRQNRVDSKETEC

[14] = potency of ADAM10 substrate cleavage blockers – biochemical, QFRET, dose response (AID 743254);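 further: ADAM10 enzyme with the DM2 quenched FRET peptide as substrate; EDANS fluorescence gain as the protease cuts the substrate; inhibitor potency against ADAM10 proteolytic activity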
[15] = target: E3 ubiquitin-protein ligase Mdm2 (Homo sapiens, UniProt Q00987); test: MDM2-luc reporter signal enhancers, multi-concentration potency testing, MDM2 ubiquitin-protein ligase inhibitor program, whole-cell format, luminescence detection, 384-well microplate (AID 1394); type: functional;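 further: MDM2 E3 inhibitors raise luminescence so EC50 is for signal enhancement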
Sequence of E3 ubiquitin-protein ligase Mdm2 (Q00987 whole entry): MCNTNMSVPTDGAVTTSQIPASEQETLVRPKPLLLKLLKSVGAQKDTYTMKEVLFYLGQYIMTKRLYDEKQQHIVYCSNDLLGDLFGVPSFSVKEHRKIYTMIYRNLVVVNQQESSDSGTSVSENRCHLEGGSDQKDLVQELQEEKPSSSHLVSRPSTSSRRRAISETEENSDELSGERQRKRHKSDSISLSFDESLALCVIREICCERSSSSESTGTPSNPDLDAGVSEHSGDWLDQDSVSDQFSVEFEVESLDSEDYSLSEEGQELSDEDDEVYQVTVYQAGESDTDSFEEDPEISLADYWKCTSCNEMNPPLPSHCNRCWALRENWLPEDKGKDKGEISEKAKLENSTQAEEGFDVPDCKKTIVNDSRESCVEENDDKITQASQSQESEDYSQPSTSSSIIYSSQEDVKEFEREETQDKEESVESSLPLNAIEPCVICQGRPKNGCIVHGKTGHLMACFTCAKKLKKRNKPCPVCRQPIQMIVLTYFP

[16] = cells; remark: listed apart in the source
[17] = target: T3, Oxysterols receptor LXR-beta (Homo sapiens, UniProt P55055); type: functional, cell-based;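 further: Cell-based luminescence dose-response assay of agonist activity at LXR, run as a confirmatory counterscreen to a daf-12 agonist screen; agonist potency from rising luciferase signal of a Gal4-LXR reporter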
T3 sequence (P55055 whole entry): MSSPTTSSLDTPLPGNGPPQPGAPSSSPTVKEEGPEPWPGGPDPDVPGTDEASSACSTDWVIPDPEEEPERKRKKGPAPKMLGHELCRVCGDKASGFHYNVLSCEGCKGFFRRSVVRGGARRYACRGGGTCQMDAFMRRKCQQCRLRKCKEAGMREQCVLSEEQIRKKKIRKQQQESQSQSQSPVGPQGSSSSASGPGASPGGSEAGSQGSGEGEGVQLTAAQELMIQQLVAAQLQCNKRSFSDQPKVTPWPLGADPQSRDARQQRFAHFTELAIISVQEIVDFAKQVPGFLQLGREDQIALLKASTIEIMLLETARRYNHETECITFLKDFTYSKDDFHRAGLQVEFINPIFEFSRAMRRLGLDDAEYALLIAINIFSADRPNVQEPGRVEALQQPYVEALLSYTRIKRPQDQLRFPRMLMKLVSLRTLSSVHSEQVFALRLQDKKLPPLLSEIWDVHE

[18] = viability of uninfected HEp-2 cells – cell-based, HTS, cytotoxicity control for RSV inhibitor project, dose response (AID 2410); type: functional; settings: human respiratory syncytial virus
[19] = target: T3, Oxysterols receptor LXR-beta; test: LXR agonists, Gal4 luciferase reporter, dose response, counter-screen for ssDAF-12 agonist project, cell-based, luminescence, HEK293, S. stercoralis campaign (AID 720737); type: functional; settings: read-out: IC50 (the source's name)
[20] = target: T4, Protein skinhead-1 (Caenorhabditis elegans, UniProt P34707); type: functional
T4 sequence (P34707 whole entry): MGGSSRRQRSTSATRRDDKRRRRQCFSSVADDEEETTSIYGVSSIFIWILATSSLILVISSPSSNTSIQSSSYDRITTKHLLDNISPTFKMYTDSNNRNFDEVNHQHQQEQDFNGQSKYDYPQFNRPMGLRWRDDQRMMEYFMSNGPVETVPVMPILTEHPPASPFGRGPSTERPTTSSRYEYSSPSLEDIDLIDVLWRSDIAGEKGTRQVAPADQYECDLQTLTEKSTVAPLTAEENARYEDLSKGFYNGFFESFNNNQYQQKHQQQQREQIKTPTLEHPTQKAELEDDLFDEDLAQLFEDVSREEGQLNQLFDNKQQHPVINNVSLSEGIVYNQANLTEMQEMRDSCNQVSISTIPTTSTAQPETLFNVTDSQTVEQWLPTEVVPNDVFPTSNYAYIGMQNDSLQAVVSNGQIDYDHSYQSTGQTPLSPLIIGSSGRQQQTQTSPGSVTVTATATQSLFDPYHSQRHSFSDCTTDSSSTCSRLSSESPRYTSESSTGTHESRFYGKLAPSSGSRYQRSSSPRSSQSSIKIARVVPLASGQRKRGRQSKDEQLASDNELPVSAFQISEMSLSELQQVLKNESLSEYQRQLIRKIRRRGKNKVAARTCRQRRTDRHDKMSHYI

[21] = Luminescence-based cell-based high throughput dose response assay to identify activators of the DAF-12 from the parasite S. stercoralis (ssDAF-12).; type: functional
[22] = target: Prothrombin (Homo sapiens, UniProt P00734); test: Thrombin 1536 HTS Dose Response Confirmation. [Related pubchem assays: 1046 (Thrombin 1536 HTS; hits were confirmed in this assay)]; type: functional
[23] = target: Bifunctional protein GlmU (Mycobacterium tuberculosis, UniProt P9WMN3); test: Inhibitors of Mycobacterial Glucosamine-1-phosphate acetyl transferase (GlmU). Secondary screen.; parameters: species or system Mycobacterium tuberculosis H37Rv
Sequence of Bifunctional protein GlmU (P9WMN3 whole entry): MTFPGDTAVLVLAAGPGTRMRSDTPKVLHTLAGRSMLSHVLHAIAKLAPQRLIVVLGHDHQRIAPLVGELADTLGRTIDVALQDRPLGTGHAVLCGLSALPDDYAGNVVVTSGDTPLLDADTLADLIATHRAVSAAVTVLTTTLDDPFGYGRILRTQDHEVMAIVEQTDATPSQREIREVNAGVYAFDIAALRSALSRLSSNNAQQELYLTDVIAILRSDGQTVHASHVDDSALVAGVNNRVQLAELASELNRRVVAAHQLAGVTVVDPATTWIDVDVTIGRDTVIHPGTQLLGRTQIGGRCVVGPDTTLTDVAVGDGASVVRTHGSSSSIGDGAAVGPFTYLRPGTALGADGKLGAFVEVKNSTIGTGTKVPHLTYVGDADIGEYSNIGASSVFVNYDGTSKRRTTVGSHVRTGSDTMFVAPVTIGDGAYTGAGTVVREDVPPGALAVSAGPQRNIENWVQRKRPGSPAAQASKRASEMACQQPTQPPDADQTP

[24] = target: T5, Tyrosine-protein phosphatase non-receptor type 7 (Homo sapiens, UniProt P35236); test: HePTP tyrosine phosphatase activity blockers – biochemical, absorbance, leukemia target, primary screen (AID 521); type: functional
T5 sequence (P35236 whole entry): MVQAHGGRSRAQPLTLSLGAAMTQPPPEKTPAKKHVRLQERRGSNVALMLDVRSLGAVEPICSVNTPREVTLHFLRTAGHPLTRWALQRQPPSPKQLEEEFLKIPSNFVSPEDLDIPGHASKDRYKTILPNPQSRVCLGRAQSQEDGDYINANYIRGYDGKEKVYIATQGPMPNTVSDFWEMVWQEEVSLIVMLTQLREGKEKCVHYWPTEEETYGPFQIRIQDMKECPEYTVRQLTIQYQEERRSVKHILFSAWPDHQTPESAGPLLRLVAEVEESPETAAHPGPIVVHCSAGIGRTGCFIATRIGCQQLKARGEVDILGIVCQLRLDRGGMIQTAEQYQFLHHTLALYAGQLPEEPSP

[25] = rise of 2N DNA cells, HeLa – IC50, dose response (AID 1117349); type: functional, cell-based
[26] = rise of 4N DNA cells, HeLa – IC50, dose response (AID 1117351); type: functional, cell-based
[27] = target: Paired box protein Pax-8 (Homo sapiens, UniProt Q06710); test: PAX8 transcriptional activity inhibition in RMG-I – RMG-I cells, luciferase, cherry-pick, dose response (AID 687027); type: functional, cell-based;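 further: luciferase reporter driven by Pax8 target thyroperoxidase promoter measured by SteadyGlo luminescence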
Sequence of Paired box protein Pax-8 (Q06710 whole entry): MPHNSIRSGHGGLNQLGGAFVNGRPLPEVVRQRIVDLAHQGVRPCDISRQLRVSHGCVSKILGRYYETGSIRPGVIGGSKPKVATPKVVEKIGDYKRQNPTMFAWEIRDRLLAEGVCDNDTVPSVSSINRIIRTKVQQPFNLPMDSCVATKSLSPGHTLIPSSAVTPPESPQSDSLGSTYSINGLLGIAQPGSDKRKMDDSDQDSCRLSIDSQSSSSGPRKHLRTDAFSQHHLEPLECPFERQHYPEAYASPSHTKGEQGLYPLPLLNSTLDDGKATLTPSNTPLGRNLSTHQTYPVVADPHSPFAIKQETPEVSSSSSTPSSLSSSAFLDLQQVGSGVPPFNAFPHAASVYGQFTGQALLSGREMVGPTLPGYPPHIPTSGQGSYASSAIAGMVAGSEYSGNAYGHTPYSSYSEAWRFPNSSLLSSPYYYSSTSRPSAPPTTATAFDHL

[28] = OVCAR-3 cell viability loss – plate reader, dry powder samples, PAX8 inhibitor project, dose response (AID 743044); type: functional, cell-based
[29] = OVCAR8 cell viability loss – plate reader, dry powder samples, PAX8 project, dose response (AID 743197); type: functional, cell-based; settings: OVCAR-8
[30] = A2780 cell killing – plate reader, dry powder samples, cytotoxicity control, dose response (AID 743046); type: functional, cell-based
[31] = Reduced DLD-1 viability, concentration-response, CellTiter-Glo luminescence (AID 1117352); type: functional
[32] = SNU-C1 cell viability reduction, dose response, CellTiter-Glo luminescence (AID 1117323); type: functional, cell-based
[33] = cytotoxicity toward Colo320 cells – cell-based, CellTiter-Glo luminescence, IC50, dose response (AID 1117334); type: functional; settings: COLO 320
[34] = cytotoxicity toward HT-29 cells – cell-based, CellTiter-Glo luminescence, IC50, dose response (AID 1117330); type: functional
[35] = RKO cell viability reduction, dose response, CellTiter-Glo luminescence (AID 1117322); type: functional
[36] = CellTiter-Glo luminescence survival assay, SW480 colon tumor line, concentration-response curve, half-maximal inhibitory concentration (AID 1117338); type: functional
[37] = cytotoxicity toward HCT116 cells – cell-based, CellTiter-Glo luminescence, IC50, dose response (AID 1117332); type: functional; settings: HCT-116

Sequence of Glyceraldehyde-3-phosphate dehydrogenase (P04406 whole entry): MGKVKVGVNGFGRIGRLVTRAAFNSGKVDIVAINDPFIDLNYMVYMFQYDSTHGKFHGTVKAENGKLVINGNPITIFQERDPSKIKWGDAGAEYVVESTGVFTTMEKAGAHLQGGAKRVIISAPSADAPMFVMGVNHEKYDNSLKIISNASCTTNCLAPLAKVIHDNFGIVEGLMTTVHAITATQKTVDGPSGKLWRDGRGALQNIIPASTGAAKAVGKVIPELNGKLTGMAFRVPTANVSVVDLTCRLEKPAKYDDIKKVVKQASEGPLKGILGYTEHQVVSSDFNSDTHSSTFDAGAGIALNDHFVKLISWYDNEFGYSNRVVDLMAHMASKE

CCCCN1CCN(C2=C(Cl)C(=O)N(c3ccc(Cl)c(Cl)c3)C2=O)CC1
IC50 [1]: > 100 µM (not active)
IC50 [2]: 10.5 µM (active)
IC50 [3]: 3.28 µM (active)

O=C(O)c1ccc(S(=O)(=O)c2ccc3c(c2)C(=O)N(Cc2ccco2)C3=O)cc1
IC50 [4]: > 100 µM (active)

CCOc1ccc(-[n+]2c(-c3ccc(Br)cc3)cn3c2CCCCC3)cc1
EC50 [5]: 0.073 µM (active)
EC50 [6]: > 160 µM (inactive)
AC50 [7]: 1.07 µM (active)
EC50 [8]: < 0.1 µM (active)
EC50 [9]: > 60 µM (not active)
AC50 [10]: 3.87 µM (active)
CC50 [11]: 21.2 µM (active)

Cc1ccc(Cl)c(N2C(=O)C(Cl)=C(N3CCOCC3)C2=O)c1Cl
IC50 [1]: > 10 µM (inconclusive)
IC50 [2]: > 100 µM (not active)
IC50 [3]: > 100 µM (not active)

Cc1ccc(C(=O)C2=C(O)C(=O)N(CC(C)O)C2c2ccc(N(C)C)cc2)cc1 (centres undefined)
Ki [12]: > 66.7 µM (inactive)

CN(C)c1ccc(C(CNS(=O)(=O)c2ccc(F)cc2)c2c[nH]c3ccccc23)cc1 (centres undefined)
IC50 [13]: > 69.5 µM (inactive)
IC50 [14]: > 69.5 µM (inactive)

COC(=O)C1=C(C(=O)OC)[C@@H]2N(C)c3ccc(OC)cc3[C@@]23C[C@@H](C(=O)OC)NC3=N1
EC50 [15]: 1.09 µM (not active)

Cc1cccc(Nc2nc(-c3cccs3)cs2)n1
EC50 [16]: > 67.5 µM (inactive)
EC50 [17]: > 67.5 µM (inactive)
CC50 [18]: 9.85 µM (active)
EC50 [19]: > 67.5 µM (inactive)
IC50 [20]: > 100 µM (inactive)
IC50 [21]: > 67.5 µM (inactive)

CCc1nc(O)c2ccsc2n1
IC50 [22]: > 50 µM (not active)

COCCNc1nnc(SCC(=O)c2c[nH]c3ccccc23)s1
IC50 [22]: > 50 µM (not active)

Clc1ccc(SCCOCCN2CCc3ccccc3C2)cc1
EC50 [5]: 0.081 µM (active)
EC50 [8]: < 0.1 µM (active)
EC50 [9]: > 60 µM (not active)

CN1CCN(C(=S)NC(=O)c2ccc(Cl)cc2)CC1
IC50 [23]: 132 µM (active)

Cc1ccc(OCC(=O)Nc2ccc(-c3nnc(-c4ccco4)o3)cc2)cc1
IC50 [24]: > 100 µM (not active)

Cn1c(=O)oc2cc(S(=O)(=O)N3CCCC(C(=O)N4CCn5c4nc4ccccc45)C3)ccc21 (centres undefined)
IC50 [24]: > 100 µM (not active)

C=CCOc1cccc(C2C(C(=O)c3ccco3)=C(O)C(=O)N2CCN2CCOCC2)c1 (centres undefined)
Ki [12]: > 66.7 µM (inactive)

COc1ccc(/C=C/C(=O)c2ccc(OC)cc2OC)cc1
IC50 [25]: > 10 µM (inactive)
IC50 [26]: > 10 µM (inactive)

C[C@H]1CCCCO[C@@H](CN(C)S(=O)(=O)c2cccs2)[C@@H](C)CN([C@@H](C)CO)C(=O)c2cc(NS(=O)(=O)c3ccc(Cl)cc3)ccc2O1
AC50 [27]: 7.93 µM (active)
AC50 [28]: 42.6 µM (active)
AC50 [29]: > 70 µM (inactive)
AC50 [30]: 14.1 µM (active)

Cc1ccc(-n2c(Cc3cccs3)nnc2SCC(=O)Nc2ccc(OCc3ccccc3)cc2)cc1
IC50 [13]: > 69.5 µM (inactive)
IC50 [14]: > 69.5 µM (inactive)

CN(C)c1ccc(/C=N\NC(=O)c2csnn2)cc1
IC50 [4]: > 100 µM (active)

Cc1c(C)c2c(c(C)c1O)CC[C@@](C)(CCC[C@H](C)CCC[C@H](C)CCCC(C)C)O2 [alpha-TOCHOPHEROL]
IC50 [31]: > 20 µM (inactive)
IC50 [32]: > 20 µM (inactive)
IC50 [33]: > 20 µM (inactive)
IC50 [34]: > 20 µM (inactive)
IC50 [35]: 2.61 µM (active)
IC50 [36]: > 20 µM (inactive)
IC50 [37]: > 20 µM (inactive)

From ChEMBL document CHEMBL1201862, “PubChem BioAssay data set” (2004)
